Legend:
Settings in all cases: compound 10.0 µM
MAPKAPK5 (human) = MAPKAPK5 (human) (UniProt Q8IW41)
MAP4K2 (human) = MAP4K2 (human) (UniProt Q12851)
FGFR2 (human) = FGFR2 (human) (UniProt P21802)
MLTK (human) = MLTK (human) (UniProt Q9NYL2)
LIMK1 (human) = LIMK1 (human) (UniProt P53667)
CSNK1G3 (human) = CSNK1G3 (human) (UniProt Q9Y6M4)
TBK1 (human) = TBK1 (human) (UniProt Q9UHD2)
PTK2B (human) = PTK2B (human) (UniProt Q14289)
SIK2 (human) = SIK2 (human) (UniProt Q9H0K1)
AXL (human) = AXL (human) (UniProt P30530)
RIPK2 (human) = RIPK2 (human) (UniProt O43353)
PRKCB2 (human) = PRKCB2 (human) (UniProt P05771)
SYK (human) = SYK (human) (UniProt P43405)
RPS6KB2 (human) = RPS6KB2 (human) (UniProt Q9UBS0)
CDK5 CDK5R1 p35 (human) = CDK5 CDK5R1 p35 (human) (UniProt Q00535+Q15078)
CHEK1 (human) = CHEK1 (human) (UniProt O14757)
CLK2 (human) = CLK2 (human) (UniProt P49760)
STK24 (human) = STK24 (human) (UniProt Q9Y6E0)
HIPK1 (human) = HIPK1 (human) (UniProt Q86Z02)
MAP2K2 (human) = MAP2K2 (human) (UniProt P36507)
ALK (human) = ALK (human) (UniProt Q9UM73)
HCK (human) = HCK (human) (UniProt P08631)
MATK (human) = MATK (human) (UniProt P42679)
DAPK2 (human) = DAPK2 (human) (UniProt Q9UIK4)
CDK4 CCND3 (human) = CDK4 CCND3 (human) (UniProt P11802+P30281)
CHUK (human) = CHUK (human) (UniProt O15111)
MAP2K1 (human) = MAP2K1 (human) (UniProt Q02750)
CSNK1G2 (human) = CSNK1G2 (human) (UniProt P78368)
MELK (human) = MELK (human) (UniProt Q14680)
MYLK (human) = MYLK (human) (UniProt Q15746)
CAMK2D (human) = CAMK2D (human) (UniProt Q13557)
AKT3 (human) = AKT3 (human) (UniProt Q9Y243)
FRK (human) = FRK (human) (UniProt P42685)
PHKG2 (human) = PHKG2 (human) (UniProt P15735)
MAP3K11 (human) = MAP3K11 (human) (UniProt Q16584)
ROCK1 (human) = ROCK1 (human) (UniProt Q13464)
SLK (human) = SLK (human) (UniProt Q9H2G2)
PRKACG (human) = PRKACG (human) (UniProt P22612)
TEK (human) = TEK (human) (UniProt Q02763)
NLK (human) = NLK (human) (UniProt Q9UBE8)
MAP3K5 (human) = MAP3K5 (human) (UniProt Q99683)
MYLK2 (human) = MYLK2 (human) (UniProt Q9H1R3)
MAP3K3 (human) = MAP3K3 (human) (UniProt Q99759)
PRKG2 (human) = PRKG2 (human) (UniProt Q13237)

HIPK1 (human), sequence (Q86Z02 whole entry, looked up): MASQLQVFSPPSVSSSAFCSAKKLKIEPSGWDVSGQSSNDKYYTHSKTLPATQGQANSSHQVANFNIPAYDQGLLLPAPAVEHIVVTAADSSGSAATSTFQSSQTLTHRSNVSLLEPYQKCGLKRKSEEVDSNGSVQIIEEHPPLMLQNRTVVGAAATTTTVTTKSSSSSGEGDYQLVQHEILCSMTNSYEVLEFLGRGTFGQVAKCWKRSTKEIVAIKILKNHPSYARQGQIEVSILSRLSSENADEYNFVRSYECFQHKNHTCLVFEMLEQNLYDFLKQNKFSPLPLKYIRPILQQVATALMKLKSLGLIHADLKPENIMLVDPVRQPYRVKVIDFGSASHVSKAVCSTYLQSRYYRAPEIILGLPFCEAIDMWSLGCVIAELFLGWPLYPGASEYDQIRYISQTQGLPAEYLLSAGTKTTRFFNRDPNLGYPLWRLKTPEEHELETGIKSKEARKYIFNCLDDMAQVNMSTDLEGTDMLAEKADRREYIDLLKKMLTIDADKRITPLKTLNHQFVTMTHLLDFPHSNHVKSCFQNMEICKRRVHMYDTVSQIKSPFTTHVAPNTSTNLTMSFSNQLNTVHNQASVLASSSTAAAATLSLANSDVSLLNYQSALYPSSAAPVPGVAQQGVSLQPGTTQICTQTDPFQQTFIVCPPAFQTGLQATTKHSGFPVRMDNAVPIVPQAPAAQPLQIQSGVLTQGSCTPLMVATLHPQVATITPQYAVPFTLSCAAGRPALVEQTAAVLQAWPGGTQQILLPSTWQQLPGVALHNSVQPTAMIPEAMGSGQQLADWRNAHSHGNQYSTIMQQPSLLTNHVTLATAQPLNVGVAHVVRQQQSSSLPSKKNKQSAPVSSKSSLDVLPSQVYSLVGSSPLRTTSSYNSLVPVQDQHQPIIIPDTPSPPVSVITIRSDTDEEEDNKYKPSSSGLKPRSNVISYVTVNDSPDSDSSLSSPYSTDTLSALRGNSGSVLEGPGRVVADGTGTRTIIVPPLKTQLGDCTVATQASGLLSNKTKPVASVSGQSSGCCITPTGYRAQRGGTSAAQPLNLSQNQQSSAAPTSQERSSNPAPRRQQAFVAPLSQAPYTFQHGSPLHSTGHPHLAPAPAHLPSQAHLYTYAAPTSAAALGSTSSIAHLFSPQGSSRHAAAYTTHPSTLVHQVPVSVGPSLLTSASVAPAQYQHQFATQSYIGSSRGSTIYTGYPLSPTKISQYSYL
MELK (human), sequence (Q14680 whole entry, looked up): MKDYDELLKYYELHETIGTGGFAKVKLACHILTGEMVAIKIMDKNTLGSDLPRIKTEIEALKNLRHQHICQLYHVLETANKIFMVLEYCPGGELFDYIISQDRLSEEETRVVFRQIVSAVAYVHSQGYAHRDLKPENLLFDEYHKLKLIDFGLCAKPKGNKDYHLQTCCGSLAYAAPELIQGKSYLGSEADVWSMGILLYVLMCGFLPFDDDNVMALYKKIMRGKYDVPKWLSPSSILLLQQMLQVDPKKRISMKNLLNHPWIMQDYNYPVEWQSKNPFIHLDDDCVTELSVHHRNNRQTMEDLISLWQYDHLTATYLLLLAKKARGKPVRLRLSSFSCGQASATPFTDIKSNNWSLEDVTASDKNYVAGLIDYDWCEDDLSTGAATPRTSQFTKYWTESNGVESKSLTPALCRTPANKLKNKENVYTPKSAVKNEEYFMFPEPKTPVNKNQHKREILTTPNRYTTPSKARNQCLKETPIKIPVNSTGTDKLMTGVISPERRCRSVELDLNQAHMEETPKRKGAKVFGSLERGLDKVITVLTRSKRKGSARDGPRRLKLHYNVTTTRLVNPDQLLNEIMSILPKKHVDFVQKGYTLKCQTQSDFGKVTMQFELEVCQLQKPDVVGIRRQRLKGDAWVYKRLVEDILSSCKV
PHKG2 (human), sequence (P15735 whole entry, looked up): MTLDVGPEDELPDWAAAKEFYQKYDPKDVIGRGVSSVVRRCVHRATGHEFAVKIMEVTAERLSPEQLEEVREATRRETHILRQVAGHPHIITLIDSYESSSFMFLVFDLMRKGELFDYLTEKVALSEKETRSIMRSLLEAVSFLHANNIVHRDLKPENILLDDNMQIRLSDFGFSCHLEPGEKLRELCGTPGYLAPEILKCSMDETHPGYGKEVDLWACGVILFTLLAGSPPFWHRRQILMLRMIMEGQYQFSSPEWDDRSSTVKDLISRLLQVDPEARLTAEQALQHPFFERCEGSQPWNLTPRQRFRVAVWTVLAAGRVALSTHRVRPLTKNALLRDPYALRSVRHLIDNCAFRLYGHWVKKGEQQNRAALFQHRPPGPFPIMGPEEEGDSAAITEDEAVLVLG
CDK4 CCND3 (human), sequence (P11802 whole entry, looked up): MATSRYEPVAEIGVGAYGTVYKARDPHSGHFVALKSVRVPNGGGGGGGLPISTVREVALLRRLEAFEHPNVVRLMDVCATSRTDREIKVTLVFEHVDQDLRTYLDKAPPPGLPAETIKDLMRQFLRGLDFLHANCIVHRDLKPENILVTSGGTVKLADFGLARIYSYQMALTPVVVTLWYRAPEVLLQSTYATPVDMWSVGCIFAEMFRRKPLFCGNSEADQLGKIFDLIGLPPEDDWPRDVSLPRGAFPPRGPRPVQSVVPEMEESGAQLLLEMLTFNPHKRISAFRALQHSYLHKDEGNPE
CDK4 CCND3 (human), sequence (P30281 whole entry, looked up): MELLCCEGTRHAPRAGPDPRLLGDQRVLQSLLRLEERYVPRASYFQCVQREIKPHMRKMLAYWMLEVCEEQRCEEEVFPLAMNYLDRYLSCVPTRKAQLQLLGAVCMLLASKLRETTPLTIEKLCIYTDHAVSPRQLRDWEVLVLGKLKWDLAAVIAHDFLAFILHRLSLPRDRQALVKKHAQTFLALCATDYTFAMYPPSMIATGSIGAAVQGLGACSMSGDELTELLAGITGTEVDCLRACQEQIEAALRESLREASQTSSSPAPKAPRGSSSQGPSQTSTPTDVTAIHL
MYLK (human), sequence (Q15746 whole entry, looked up): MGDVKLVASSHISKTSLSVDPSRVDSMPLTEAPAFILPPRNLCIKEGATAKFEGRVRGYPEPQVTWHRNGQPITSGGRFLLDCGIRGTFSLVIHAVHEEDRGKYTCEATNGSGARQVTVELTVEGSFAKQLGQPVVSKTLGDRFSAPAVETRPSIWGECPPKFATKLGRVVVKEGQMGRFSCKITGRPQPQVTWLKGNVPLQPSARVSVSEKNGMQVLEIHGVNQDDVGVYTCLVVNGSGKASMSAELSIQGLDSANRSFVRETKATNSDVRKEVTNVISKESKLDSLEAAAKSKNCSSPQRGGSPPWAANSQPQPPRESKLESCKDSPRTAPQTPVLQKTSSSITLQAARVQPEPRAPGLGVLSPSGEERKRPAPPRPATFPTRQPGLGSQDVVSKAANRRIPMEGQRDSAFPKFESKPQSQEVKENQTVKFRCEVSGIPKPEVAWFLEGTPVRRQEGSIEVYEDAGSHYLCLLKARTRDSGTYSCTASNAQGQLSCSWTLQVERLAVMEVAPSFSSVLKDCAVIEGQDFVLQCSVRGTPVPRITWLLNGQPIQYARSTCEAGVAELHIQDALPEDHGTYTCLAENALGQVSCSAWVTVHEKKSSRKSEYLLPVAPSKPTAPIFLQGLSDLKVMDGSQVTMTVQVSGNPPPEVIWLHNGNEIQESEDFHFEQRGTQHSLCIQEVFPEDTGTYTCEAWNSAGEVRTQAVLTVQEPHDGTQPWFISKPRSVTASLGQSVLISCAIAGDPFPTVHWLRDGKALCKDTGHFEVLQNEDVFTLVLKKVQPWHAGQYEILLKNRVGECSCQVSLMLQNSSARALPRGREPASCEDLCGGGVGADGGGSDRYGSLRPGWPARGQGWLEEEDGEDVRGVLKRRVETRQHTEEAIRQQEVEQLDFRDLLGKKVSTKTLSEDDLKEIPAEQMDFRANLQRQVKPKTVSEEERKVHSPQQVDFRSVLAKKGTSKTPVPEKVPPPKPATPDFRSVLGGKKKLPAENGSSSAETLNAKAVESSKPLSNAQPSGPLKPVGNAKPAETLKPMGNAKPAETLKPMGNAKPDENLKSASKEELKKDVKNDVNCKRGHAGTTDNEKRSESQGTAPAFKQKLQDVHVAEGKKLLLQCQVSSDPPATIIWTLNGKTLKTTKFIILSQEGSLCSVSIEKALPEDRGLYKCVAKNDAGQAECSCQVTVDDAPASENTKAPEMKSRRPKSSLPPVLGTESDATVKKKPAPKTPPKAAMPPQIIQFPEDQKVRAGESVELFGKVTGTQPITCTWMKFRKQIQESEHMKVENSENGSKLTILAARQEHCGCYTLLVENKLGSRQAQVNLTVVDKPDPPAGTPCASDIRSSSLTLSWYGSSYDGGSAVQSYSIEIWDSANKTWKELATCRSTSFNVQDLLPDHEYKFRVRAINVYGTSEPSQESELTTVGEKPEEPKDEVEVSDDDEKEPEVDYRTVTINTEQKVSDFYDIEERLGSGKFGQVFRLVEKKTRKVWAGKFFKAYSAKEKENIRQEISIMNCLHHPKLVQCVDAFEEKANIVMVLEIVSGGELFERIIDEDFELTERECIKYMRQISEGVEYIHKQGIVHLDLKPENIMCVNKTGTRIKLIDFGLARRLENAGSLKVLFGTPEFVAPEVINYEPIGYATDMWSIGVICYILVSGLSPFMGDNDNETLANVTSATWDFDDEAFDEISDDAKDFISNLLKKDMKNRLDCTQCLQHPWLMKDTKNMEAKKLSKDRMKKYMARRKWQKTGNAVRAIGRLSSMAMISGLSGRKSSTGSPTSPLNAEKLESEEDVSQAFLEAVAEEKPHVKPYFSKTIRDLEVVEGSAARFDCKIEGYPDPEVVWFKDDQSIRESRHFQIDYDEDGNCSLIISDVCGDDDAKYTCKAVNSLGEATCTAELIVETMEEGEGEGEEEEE

`CC[C@H](C)n1cc(C)c2c(C(=O)NCc3c(C)cc(C)[nH]c3=O)cc(-c3ccc(N4CCNCC4)nc3)cc21` gave a residual activity (MAPKAPK5 (human)) of 86%, a residual activity (MAP4K2 (human)) of 91.5% and a residual activity (FGFR2 (human)) of 98.5%. For the same compound, the residual activity (MLTK (human)) was 96%, the residual activity (LIMK1 (human)) was 99.5% and the residual activity (CSNK1G3 (human)) was 98%. For the same compound, the residual activity (TBK1 (human)) was 105%, the residual activity (PTK2B (human)) was 110% and the residual activity (SIK2 (human)) was 108%. It also gave a residual activity (AXL (human)) of 103%, a residual activity (RIPK2 (human)) of 95.5% and a residual activity (PRKCB2 (human)) of 94%. The residual activity (SYK (human)) was 89%, the residual activity (RPS6KB2 (human)) was 92% and the residual activity (CDK5 CDK5R1 p35 (human)) was 103%. It also gave a residual activity (CHEK1 (human)) of 79%, a residual activity (CLK2 (human)) of 89.5% and a residual activity (STK24 (human)) of 82%. The residual activity (HIPK1 (human)) was 99%, the residual activity (MAP2K2 (human)) was 102% and the residual activity (ALK (human)) was 91.5%. It also gave a residual activity (HCK (human)) of 101%, a residual activity (MATK (human)) of 95.5% and a residual activity (DAPK2 (human)) of 106%. The residual activity (CDK4 CCND3 (human)) was 104%, the residual activity (CHUK (human)) was 93% and the residual activity (MAP2K1 (human)) was 102%. It also gave a residual activity (CSNK1G2 (human)) of 90.5%, a residual activity (MELK (human)) of 79.5% and a residual activity (MYLK (human)) of 96%. For the same compound, the residual activity (CAMK2D (human)) was 100%, the residual activity (AKT3 (human)) was 94% and the residual activity (FRK (human)) was 97%. The residual activity (PHKG2 (human)) was 93.5%, the residual activity (MAP3K11 (human)) was 95% and the residual activity (ROCK1 (human)) was 96%. For the same compound, the residual activity (SLK (human)) was 108%, the residual activity (PRKACG (human)) was 100% and the residual activity (TEK (human)) was 95.5%. For the same compound, the residual activity (NLK (human)) was 95%, the residual activity (MAP3K5 (human)) was 102% and the residual activity (MYLK2 (human)) was 96.5%. The residual activity (MAP3K3 (human)) was 107% and the residual activity (PRKG2 (human)) was 97%.
